The target in series [1] is Cytochrome P450 2C9 (Homo sapiens, UniProt P11712).
For series [2], the target named is T1, Heat shock factor protein 1 (Mus musculus, UniProt P38532).
T1 sequence (P38532 whole entry): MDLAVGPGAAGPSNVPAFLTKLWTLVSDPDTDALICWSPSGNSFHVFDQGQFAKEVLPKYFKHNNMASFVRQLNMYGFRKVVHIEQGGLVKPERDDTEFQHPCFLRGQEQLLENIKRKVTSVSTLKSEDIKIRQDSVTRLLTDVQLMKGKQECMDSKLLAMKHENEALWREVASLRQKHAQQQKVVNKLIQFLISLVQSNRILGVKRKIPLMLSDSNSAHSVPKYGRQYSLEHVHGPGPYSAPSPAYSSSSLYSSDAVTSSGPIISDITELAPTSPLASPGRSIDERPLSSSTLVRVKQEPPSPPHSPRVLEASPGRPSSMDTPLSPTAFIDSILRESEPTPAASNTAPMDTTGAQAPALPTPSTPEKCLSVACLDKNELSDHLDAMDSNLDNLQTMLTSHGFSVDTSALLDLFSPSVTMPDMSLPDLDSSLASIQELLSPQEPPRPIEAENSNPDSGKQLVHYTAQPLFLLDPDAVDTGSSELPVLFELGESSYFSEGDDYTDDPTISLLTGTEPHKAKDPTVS
Put plainly: decrease of HSF1-responsive luciferase luminescence – cell-based, NIH3T3, dose retest, confirmation (AID 2382).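 Further: NIH3T3 fibroblasts with HSF1-driven luciferase reporter stressed by proteasome inhibitor MG132; luminescence from HSF1-driven luciferase expression after 8 hours of MG132 stress.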 The format is functional.

For series [3], the system named is Streptococcus sp. 'group A'. Put plainly: Streptococcus pyogenes SK(-)GAS viability under kanamycin – luminescence, BacTiterGlo, confirmation, counter-screen for streptokinase expression inhibitor project, dose response (AID 1900). The format is functional, organism-based. A general note: Counterscreens check selectivity or assay interference.
For series [4], the target named is T2, Streptokinase A (Streptococcus pyogenes serotype M1, UniProt P10520).
T2 sequence (P10520 whole entry): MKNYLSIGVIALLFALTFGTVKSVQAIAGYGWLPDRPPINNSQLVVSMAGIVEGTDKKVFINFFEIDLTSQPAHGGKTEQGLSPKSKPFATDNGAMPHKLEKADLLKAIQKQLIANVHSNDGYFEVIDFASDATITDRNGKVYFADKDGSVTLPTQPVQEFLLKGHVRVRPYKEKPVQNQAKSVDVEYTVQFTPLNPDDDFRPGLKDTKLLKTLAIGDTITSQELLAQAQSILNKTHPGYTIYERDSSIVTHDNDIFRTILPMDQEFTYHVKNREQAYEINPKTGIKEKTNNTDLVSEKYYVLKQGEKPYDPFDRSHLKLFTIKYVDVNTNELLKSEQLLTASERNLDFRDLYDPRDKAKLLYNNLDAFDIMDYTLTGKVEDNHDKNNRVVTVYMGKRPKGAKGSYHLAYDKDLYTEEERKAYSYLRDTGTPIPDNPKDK
The experiment in a line: viability-normalized secreted streptokinase activity reduction – plasminogen activation absorbance, OD405, dose response (AID 1914).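 Further: secreted streptokinase activity via plasminogen activation per viability signal from cell pellet.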 Format: functional, Streptococcus pyogenes M1 GAS.

Series [5] relates to Streptococcus. Put plainly: GAS UMAA2166 growth inhibition – luminescence, BacTiterGlo, counter-screen for streptokinase expression inhibitor project, dose response (AID 1915).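 Further: potency for reduction of bacterial viability or growth.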 Format: functional, organism-based.
Series [6] deals with Cytochrome P450 2C19 (Homo sapiens, UniProt P33261). The experiment in a line: Cytochrome panel assay with activity outcomes. Panel member name: p450-cyp2c19 Compounds with AC50 equal or less than 10 uM are considered active. Format: functional.
Series [7] in a line: Trypanosoma cruzi growth suppression in host cells – NIH3T3 host cells, beta-gal luminescence, confirmation (AID 2044).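 Further: intracellular parasites grown in NIH/3T3 mouse fibroblasts as host cells; luminescent beta-galactosidase reporter signal from transgenic T. cruzi replicating inside host cells; inhibitors lower the luminescence signal.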 The format is functional, cell-based.
Series [8] is described as follows: NIH3T3 cell viability loss – ATP luminescence, mouse fibroblasts, counter-screen, dose response (AID 2010).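 Further: cells exposed to compound for about 90 hours before reading.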 Format: functional, cell-based.

51 compounds from ChEMBL document CHEMBL1201862, “PubChem BioAssay data set” (2004) can be followed below.

By AC50 is commonly meant the concentration giving half of the maximal activity seen. Usually EC50 stands for the concentration that produces a half-maximal response.

The structures appear in SMILES notation. Activity calls are given as the source filed them.

Sequence of Cytochrome P450 2C19 (P33261 whole entry): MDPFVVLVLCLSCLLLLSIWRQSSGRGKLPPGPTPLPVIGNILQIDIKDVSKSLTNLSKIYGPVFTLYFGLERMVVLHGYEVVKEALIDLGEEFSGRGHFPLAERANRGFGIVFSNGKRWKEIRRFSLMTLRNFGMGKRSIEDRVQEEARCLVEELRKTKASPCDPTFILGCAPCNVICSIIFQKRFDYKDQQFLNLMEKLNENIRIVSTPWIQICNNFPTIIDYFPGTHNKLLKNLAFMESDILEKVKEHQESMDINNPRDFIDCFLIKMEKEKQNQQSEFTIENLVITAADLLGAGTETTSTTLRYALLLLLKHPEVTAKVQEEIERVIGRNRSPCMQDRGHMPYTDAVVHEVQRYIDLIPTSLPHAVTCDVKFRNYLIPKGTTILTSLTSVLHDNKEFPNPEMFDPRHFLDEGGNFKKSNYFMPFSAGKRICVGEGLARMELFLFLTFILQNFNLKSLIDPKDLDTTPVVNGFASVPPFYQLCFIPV
Sequence of Cytochrome P450 2C9 (P11712 whole entry): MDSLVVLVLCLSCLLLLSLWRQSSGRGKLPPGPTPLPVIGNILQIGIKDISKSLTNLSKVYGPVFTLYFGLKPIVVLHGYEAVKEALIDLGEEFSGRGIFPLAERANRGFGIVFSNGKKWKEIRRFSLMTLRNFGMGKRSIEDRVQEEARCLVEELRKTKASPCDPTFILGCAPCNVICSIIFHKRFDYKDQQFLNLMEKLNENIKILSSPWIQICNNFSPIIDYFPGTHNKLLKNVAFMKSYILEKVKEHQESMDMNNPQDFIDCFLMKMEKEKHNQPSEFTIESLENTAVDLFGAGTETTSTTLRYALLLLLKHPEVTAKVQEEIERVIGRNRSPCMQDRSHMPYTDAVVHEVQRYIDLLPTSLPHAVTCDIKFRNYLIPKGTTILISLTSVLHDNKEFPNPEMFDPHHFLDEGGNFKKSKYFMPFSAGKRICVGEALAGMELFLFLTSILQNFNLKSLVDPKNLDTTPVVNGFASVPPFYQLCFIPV

In the case of `CCOC(=O)c1c(-c2ccccc2)nc2ccc(Cl)cn12`, the AC50 in series [1] is 15.8 µM (inconclusive). As to `CSc1nc(Cc2ccccc2)cc(=O)[nH]1`, in series [2], the EC50 is > 195 µM (not active).

Consider `CN(CCc1ccccn1)c1ccc2c(c1)Cc1ccccc1-2`, for which the AC50 in series [1] was 7.94 µM (inconclusive).

With `COc1ccc(Cl)cc1C(=O)NNC(=S)NC(=O)c1cc(-c2ccccc2)nc2ccccc12`, the EC50 is 1.31 µM (active) in series [3], > 150 µM (not active) in series [4] and > 150 µM (inconclusive) in series [5]. For `COC(=O)c1ccc(NC(=O)c2cc3sccc3n2C)cc1`, the concentration at half-maximal activity (AC50) in series [1] is 10 µM (inconclusive). Regarding `CCCCNC(=O)c1onc(CSc2cccc(Cl)c2)c1C(=O)O`, the concentration giving a half-maximal response (EC50) in series [2] is listed as > 195 µM (not active). Regarding `Fc1ccccc1N=C(S)Nc1ccc(CN2CCOCC2)cc1`, the EC50 in series [2] is 68.4 µM (active). On the same count and under the same terms, to `N#Cc1c(N)n(-c2ccccc2N)c2nc3ccccc3nc12` belongs 11.2 µM (active). Regarding `COc1ccc(Cl)cc1C(=O)NNC(=S)NC(=O)c1ccc(F)c(F)c1`, the concentration for a half-maximal effect (EC50) in series [3] is 0.217 µM (active); in series [5], 1.37 µM (active).

In the case of `CC(=O)c1cc(C#N)c(Oc2cccc(C(F)(F)F)c2)nc1C`, in series [1], the AC50 is 25.1 µM (inconclusive). `O=C(O)c1cc(-c2ccc(-c3ccc(-c4cc(C(=O)O)c5cc(Cl)ccc5n4)cc3)cc2)nc2ccc(Cl)cc12`: the AC50 in series [1] is 3.16 µM (inconclusive). For `O=C(NCC1CCCO1)C(c1cccnc1)N(C(=O)Cc1cccs1)c1cccnc1` (stereo unspecified), the AC50 in series [6] (read-out: AC50) is 31.6 µM (inconclusive). Consider `Cc1cc(NC2CCCC2)n2nc(C)c(-c3ccccc3)c2n1`, for which the EC50 in series [7] is 3.4 µM (active); in series [8], > 60 µM (not active).

As to `Cc1cc(C)cc(NS(=O)(=O)c2ccc(NC(=S)NC(=O)c3cccs3)cc2)c1`, the EC50 in series [3] was 4.5 µM (active); in series [4], 11.7 µM (active); in series [5] it was 50.1 µM (active). Take `Nc1ccccc1SCC(=O)Nc1ccc2c(c1)OCCO2`: the concentration giving a half-maximal response (EC50) in series [2] is recorded as > 195 µM (not active). For the compound `CCCC[C@@H]1CNC(=O)C(=O)N1CCc1cccc2ccccc12`, the concentration for a half-maximal effect (EC50) in series [2] was > 195 µM (not active). Consider `Cc1ccc(SCCCn2cncn2)cc1`, for which the EC50 in series [2] is recorded as > 195 µM (not active).

`CC(C)(C)NC(=O)C1CC(=O)OC12CCOC(C)(C)C2` (stereo unspecified): the EC50 in series [2] is > 195 µM (not active). Consider `COC(=O)[C@H]1C[C@@H]1[C@H](NC(=O)c1ccccc1)c1ccccc1`, for which the concentration at half-maximal activity (AC50) in series [1] was 39.8 µM (inconclusive). For `CCn1c(SCC(=O)Nc2sc3c(c2C#N)CCCC3)nnc1-c1ccco1`, the figures for the half-maximal effective concentration (EC50) in series [7] and in series [8] were 1.89 µM (active) and > 60 µM (inconclusive), respectively. As for `Cc1cccc(C(=O)NC2CCN(C(=O)Nc3ccc(F)cc3)CC2)c1`, in series [2], the half-maximal effective concentration (EC50) is 32.7 µM (active). Take `C[C@H](CCC(=O)NN)[C@@H]1CC[C@@H]2[C@H]3CC[C@H]4C[C@@H](O)CC[C@@]4(C)[C@@H]3CC[C@]21C`: the concentration at half-maximal activity (AC50) in series [6] (read-out: AC50) is 3.16 µM (inconclusive). As for `Cc1nn(Cc2ccccc2)c(C)c1NC(=O)c1noc2c1CCc1ccccc1-2`, the 50% effective concentration (EC50) in series [2] is given as > 195 µM (not active).

On to `Brc1ccc(C2C3=C(Nc4ncnn42)c2ccccc2OC3c2ccncc2)cc1` (stereo unspecified), for which the 50% effective concentration (EC50) was 22.4 µM (active) in series [3]; > 150 µM (not active) in series [4]; 4.12 µM (active) in series [7]; > 60 µM (not active) in series [8]; 21.5 µM (active) in series [5]. `CC(C)N1CCN(Cc2ccc3nsnc3c2)CC1CCO` (stereo unspecified): the EC50 in series [2] is given as > 195 µM (not active).

`Oc1ccccc1C1CCCCC1c1ccccc1` (stereo unspecified): the EC50 is 3.83 µM (active) in series [3], 12.7 µM (active) in series [4] and 50.4 µM (active) in series [5]. As to `COc1ccc(-c2oc(NC(=O)CSc3nc[nH]n3)c(C#N)c2-c2ccc(OC)cc2)cc1`, the values for the 50% effective concentration (EC50) in series [3], in series [4] and in series [5] were 2.37 µM (active), 1.08 µM (active) and 16 µM (active), respectively. `COc1cccc(-c2cncnc2NC2CCNCC2)c1`: the AC50 result in series [6] is on record as “inconclusive”. For the compound `CCCNC(=O)OC[C@@H]1O[C@H](CCO/N=C(\C)CCN2CCc3nc(-c4ccccc4)c(-c4ccccc4)cc3C2)C=C[C@@H]1Oc1ccc(OC)cc1`, the AC50 in series [6] (read-out: AC50) is 0.316 µM (inconclusive). Consider `Cc1ccsc1C(=O)C1CCCN(Cc2ccc(-n3cccn3)cc2)C1` (stereo unspecified), for which the EC50 in series [7] was 0.201 µM (active); in series [8], > 60 µM (inconclusive). Regarding `COc1ccccc1NC(=O)c1ccc(N2CC3CC(C2)c2cccc(=O)n2C3)c(NC(=O)c2ccncc2)c1` (stereo unspecified), the EC50 in series [2] is reported as > 195 µM (not active).

With `CN1CCN(c2ccc(S(=O)(=O)N3CCCCC3)cc2[N+](=O)[O-])CC1`, the EC50 in series [7] was 0.81 µM (active); in series [8], > 60 µM (not active).

For `O=C(c1ccc2c(c1)OCO2)C1CCCN(Cc2cccn2-c2cccnc2)C1` (stereo unspecified), the EC50 is 3.29 µM (active) in series [7] and > 60 µM (not active) in series [8]. Taken in the same sequence, the figures for `O=C(Nc1ccccc1Cc1ccccc1)c1ccncc1` were 0.802 µM (active) and > 60 µM (not active).

Take `Cc1ccccc1OCCC(=O)OCC(=O)N1c2ccccc2NC(=O)C1(C)C`: the EC50 in series [2] is > 195 µM (not active).

Regarding `CS(=O)(=O)c1cccc(NC(=O)c2ccc(Cl)c(Cl)c2)c1`, the concentration giving a half-maximal response (EC50) in series [7] is 3.1 µM (active); in series [8] it was > 30 µM (not active). As for `COc1cc(OC)cc(C(=O)N[C@H](C(=O)OCC(=O)N2CCc3ccccc32)C(C)C)c1`, in series [2], the EC50 is listed as > 195 µM (not active). As to `CCCCCCN1N=C(C)C(C(=O)c2ccc(Cl)cc2)C1=O` (stereo unspecified), the concentration giving a half-maximal response (EC50) in series [3] was 2.44 µM (active); in series [4] it was > 150 µM (not active); in series [5], 29.5 µM (active). In the case of `CCOC(=O)c1ccc(NC(=O)c2[nH]cnc2C(=O)N[C@@H](Cc2ccccc2)C(=O)OC(C)(C)C)cc1`, the concentration giving a half-maximal response (EC50) in series [3] was 5.26 µM (active); in series [4], > 150 µM (not active); in series [5], 44.9 µM (active). Taken in the same sequence, the figures for `COc1ccc(-c2[nH]ncc2N=Nc2cc(C)cc(C)c2)cc1` were 23.1 µM (active), > 150 µM (not active) and > 150 µM (not active).

In the case of `O=C(CNCCc1ccc(F)cc1)Nc1cc(F)ccc1F`, the half-maximal effective concentration (EC50) in series [2] is given as > 195 µM (not active). For the compound `CC(OC(=O)CN1C(=O)NC2(CCCC2)C1=O)C(=O)c1ccccc1` (stereo unspecified), the half-maximal effective concentration (EC50) in series [2] is on record as > 195 µM (not active). For the compound `Cn1cccc1C(=O)N1CCC2(CCN(Cc3ccc(C#N)cc3)CC2)CC1`, the AC50 in series [6] (read-out: AC50) was 0.2 µM (inconclusive). As to `CC(=O)c1c(-c2ccc(Cl)cc2Cl)noc1C`, the EC50 in series [2] is listed as > 195 µM (not active). `CCC1CC(CSc2nc[nH]n2)OC1=O` (stereo unspecified): in series [1], the AC50 was 25.1 µM (inconclusive). Take `CCOC(=O)c1c(-c2ccc(OC)cc2)csc1NC=C1C(=O)CCCC1=O`: the results for the half-maximal effective concentration (EC50) in series [3], in series [4] and in series [5] were 66 µM (active), > 150 µM (not active) and 32.7 µM (active), respectively. Regarding `Cc1c(C#N)c(/N=C/N(C)C)c(C(=O)c2ccc(Br)cc2)n1-c1ccc(Cl)cc1`, the concentration giving a half-maximal response (EC50) in series [7] is 2.8 µM (active); in series [8] it was > 60 µM (inconclusive).

`Cc1nn(-c2ccccc2)c(C)c1/C=N/NC(=O)c1cc(C23CC4CC(CC(C4)C2)C3)[nH]n1`: the EC50 in series [3] is 5.31 µM (active); in series [4] it was 10.3 µM (active); in series [5], 46.2 µM (active). Taken in the same sequence, the figures for `Oc1ccccc1/N=C/c1c(O)ccc2oc3c(c12)CCCC3` were 7.61 µM (active), > 150 µM (not active) and 10.6 µM (active). In the case of `CCO/C(O)=C1\C(C)=Nc2sc(C(=O)c3ccc(Br)cc3)c(N)c2C1c1ccc(C(=O)OC)cc1` (stereo unspecified), the values for the EC50 in series [7] and in series [8] were 1.09 µM (active) and 15.8 µM (active), respectively. As to `COc1ccc(Cl)cc1Nc1nc(-c2cccnc2)cs1`, the EC50 is 3.22 µM (active) in series [7] and 14 µM (active) in series [8].
